Reference: patent US7700606B2, “Imidazole amines as inhibitors of β-secretase” (Wyeth LLC, priority 2006, dated 2010)

Columns and labels:
human BACE1 = human BACE1 (Homo sapiens, UniProt P56817); test: Fluorescent kinetic enzyme assay, inhibition of BACE1 (WABC-6 peptide substrate); type: biochemical; conditions: 10 nM enzyme, 25 μM substrate, pH 4.5, room temperature
Protocol: (§1) Evaluation of the Enzyme Activity of Test Compounds and the Inhibition of hBACE1, MuBACE1 and hBACE2 by Test Compounds
Dilution and mixing steps: total reaction volume: 100 μL • 1. […] 100 μM substrate dilution in 1× PBS is prepared, • 4.
Fluorescence Readings: Readings at λex 320 nm and λem 420 nm are taken every 40-sec for 30 min at room temperature to determine the linear slope for substrate cleavage rate (vi).

human BACE2 = target: T1, human BACE2 (Homo sapiens, UniProt Q9Y5Z0); test: Fluorescent kinetic assay for human recombinant BACE 2 (WABC-6 peptide substrate); type: biochemical; conditions: for IC50: 1.5 nM enzyme, 25 μM substrate, pH 4.5, room temperature
T1 sequence (Q9Y5Z0 63-518): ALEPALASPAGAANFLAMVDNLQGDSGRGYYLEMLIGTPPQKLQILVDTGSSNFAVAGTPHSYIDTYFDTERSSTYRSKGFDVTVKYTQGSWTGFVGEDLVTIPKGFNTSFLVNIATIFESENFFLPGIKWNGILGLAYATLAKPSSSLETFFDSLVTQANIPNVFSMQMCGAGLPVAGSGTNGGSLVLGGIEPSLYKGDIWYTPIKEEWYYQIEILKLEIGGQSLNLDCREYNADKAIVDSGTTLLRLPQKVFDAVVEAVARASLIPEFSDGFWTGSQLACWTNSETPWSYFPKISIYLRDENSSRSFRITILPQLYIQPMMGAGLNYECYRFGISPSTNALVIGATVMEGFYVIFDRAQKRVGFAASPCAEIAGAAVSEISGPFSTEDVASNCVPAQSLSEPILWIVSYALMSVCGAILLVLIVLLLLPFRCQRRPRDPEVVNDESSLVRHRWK
Protocol: as §1
Assay Conditions: 10 nM human BACE1 (or 10 nM Murine BACE1, 1.5 nM human BACE2) 25 μM substrate (WABC-6, MW 1549.6, from AnaSpec); final buffer conditions: 50 mM Na-Acetate, pH 4.5, 0.05% CHAPS, 25% PBS; temperature: room temperature; reagent information: Na-Acetate: Aldrich, Cat.#24,124-5 CHAPS: Research Organics, Cat. #1304C 1× PBS: Mediatech (Cellgro), Cat#21-031-CV; peptide substrate AbzSEVNLDAEFRDpa: AnaSpec, Peptide Name: WABC-6; determination of stock substrate (AbzSEVNLDAEFRDpa) concentration: a 25 mM stock solution in dimethyl sulfoxide (DMSO) is prepared using the peptide weight and MW and diluted to 25 μM. The concentration is determined by absorbance at 354 nm using an extinction coefficient ε of 18172 M^−1 cm^−1, The substrate stock is stored in small aliquots at −80° C. [Substrate Stock]=ABS^354 nm*10^6/18172 (in mM)
Calculation of % Inhibition: % Inhibition=100*(1−vi/v0) • (vi=substrate cleavage rate in the presence of inhibitor, • v0=substrate cleavage rate in the absence of inhibitor) IC50 Determination: % Inhibition=[(B*IC50^n)+(100*I0^n)]/(IC50^n+I0^n), Fluorescent Kinetic Assay for Human Recombinant BACE 2
This assay is used to provide kinetic and selectivity parameters for the analyses of the tested compounds.
Materials and methods: final assay conditions: 10 nM human BACE1 (or 10 nM Murine BACE1, 1.5 nM human BACE2) 25 μM Substrate (WABC-6, MW 1549.6, from AnaSpec). Final buffer conditions: 50 mM Na-Acetate, pH 4.5, 0.05% CHAPS, 25% PBS. Temperature: room temperature. Reagent Information: Na-Acetate: Aldrich, Cat.#24,124-5 CHAPS: Research Organics, Cat. #1304C 1× PBS: Mediatech (Cellgro), Cat#21-031-CV Peptide Substrate AbzSEVNLDAEFRDpa: AnaSpec, Peptide Name: WABC-6
Determination of stock substrate (AbzSEVNLDAEFRDpa) concentration: A 25 mM stock solution in DMSO is prepared using the peptide weight and MW, and diluted to 25 μM. The concentration is determined by absorbance at 354 nm using an extinction coefficient ε of 18172 M^−1cm^−1. The substrate stock is stored in small aliquots at −80° C. [Substrate Stock]=ABS^354 nm*10^6/18172 (in mM)
Determination of stock enzyme concentration: The stock concentration of each enzyme is determined by ABS at 280 nm using ε of 64150 M^−1cm^−1 for hBACE1 and MuBACE1, 62870 M^−1cm^−1 for hBACE2 in 6 M guanidinium hydrochloride (from Research Organics, Cat. #5134G-2), pH 6. (The extinction coefficient ε^280 nm for each enzyme is calculated based on known amino acid composition and published extinction coefficients for Trp ([…]) and Tyr ([…]) residues (Anal. Biochem. 182, 319-326).)
Dilution and Mixing Steps: Total Reaction Volume: 100 μL • 1. 2× inhibitor dilutions in buffer A (66.7 mM Na-Acetate, pH 4.5, 0.0667% CHAPS) are prepared, • 2. 4× enzyme dilution in buffer A (66.7 mM Na-Acetate, pH 4.5, 0.0667% CHAPS) are prepared, • 3. 100 μM substrate dilution in 1× PBS, 50 μL 2× Inhibitor and 25 μL 100 μM substrate are added to each well of 96-well plate (from DYNEX Technologies, VWR #: 11311-046), then immediately 25 μL 4× enzyme is added to the inhibitor and substrate mixer and the fluorescence readings are initiated.
Fluorescence Readings: Readings at λex 320 nm, λem 420 nm are taken every 40-sec for 30 min at room temperature and to determine the linear slope for substrate cleavage rate (vi).
Analysis of calculation of % inhibition: % Inhibition=100*(1−vi/v0) • vi=substrate cleavage rate in the presence of inhibitor, • v0=substrate cleavage rate in the absence of inhibitor) • IC50 Determination: % Inhibition=((B*IC50^n)+(100*I0^n))/(IC50^n+I0^n),
Unless otherwise noted, the IC50 value represents the value obtained at […].

human BACE1, sequence (P56817 46-501): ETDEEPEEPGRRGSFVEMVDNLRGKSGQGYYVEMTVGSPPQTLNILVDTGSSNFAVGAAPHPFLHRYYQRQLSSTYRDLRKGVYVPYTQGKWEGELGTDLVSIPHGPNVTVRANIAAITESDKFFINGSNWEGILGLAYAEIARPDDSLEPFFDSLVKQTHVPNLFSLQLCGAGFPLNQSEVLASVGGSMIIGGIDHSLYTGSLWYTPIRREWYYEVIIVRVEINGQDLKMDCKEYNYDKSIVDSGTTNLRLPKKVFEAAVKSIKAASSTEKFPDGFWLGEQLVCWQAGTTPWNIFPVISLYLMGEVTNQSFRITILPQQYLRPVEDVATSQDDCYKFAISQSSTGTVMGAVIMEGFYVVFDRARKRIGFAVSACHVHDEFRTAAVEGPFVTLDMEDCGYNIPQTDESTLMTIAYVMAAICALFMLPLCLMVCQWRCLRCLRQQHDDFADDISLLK

SMILES | IC50 (human BACE1) [nM] | inhibition at 25 µM (human BACE2) [%] | melting point [°C] | IC50 (human BACE2) [nM]
NC1=NC(c2ccncc2)(c2cccc(-c3cccnc3F)c2)C2=NCCCN12 (stereo not drawn) [Example 1, 8-[3-(2-Fluoropyridin-3-yl)phenyl]-8-pyridin-4-yl-2,3,4,8-tetrahydroimidazo[1,5-a]pyrimidin-6-amine] | 520 | 51 | 125 to 131 | 
CCn1cc(C2(c3cccc(-c4cccnc4F)c3)N=C(N)N3CCCN=C32)cn1 (stereo not drawn) [Example 3, 8-(1-Ethyl-1H-pyrazol-4-yl)-8-[3-(2-fluoropyridin-3-yl)phenyl]-2,3,4,8-tetrahydroimidazo[1,5-a]pyrimidin-6-amine] | 90 |  | 91 to 115 | 3520
NC1=NC(c2cccc(-c3cccnc3F)c2)(c2cnn(CC(F)(F)F)c2)C2=NCCCN12 (stereo not drawn) [Example 4, 8-[3-(2-Fluoropyridin-3-yl)phenyl]-8-[1-(2,2,2-trifluoroethyl)-1H-pyrazol-4-yl]-2,3,4,8-tetrahydroimidazo[1,5-a]pyrimidin-6-amine] | 80 |  | 106 to 116 | 5120
NC1=NC(c2ccc(OC(F)(F)F)cc2)(c2cccc(-c3cncc(F)c3)c2)C2=NCCON12 (stereo not drawn) [Example 6, 8-[3-(5-Fluoropyridin-3-yl)phenyl]-8-[4-(trifluoromethoxy)phenyl]-2,8-dihydro-3H-imidazo[1,5-b][1,2,4]oxadiazin-6-amine] | 50 |  | 120 to 135 | 1190

The next molecules have a lower IC50 (human BACE1) than those just listed; values first:

IC50 (human BACE1) [nM] | inhibition at 25 µM (human BACE2) [%] | melting point [°C] | IC50 (human BACE2) [nM] | SMILES
10 | 38 | 174 to 176 |  | CCc1cc(C2(c3cccc(-c4cccnc4F)c3)N=C(N)N3CCCN=C32)cc(CC)n1 (stereo not drawn) [Example 2, 8-(2,6-Diethylpyridin-4-yl)-8-[3-(2-fluoropyridin-3-yl)phenyl]-2,3,4,8-tetrahydroimidazo[1,5-a]pyrimidin-6-amine]
30 |  | 102 to 117 | 2020 | NC1=NC(c2ccc(OC(F)(F)F)cc2)(c2cccc(-c3cccnc3F)c2)C2=NOCCN12 (stereo not drawn) [Example 5, 8-[3-(2-Fluoropyridin-3-yl)phenyl]-8-[4-(trifluoromethoxy)-phenyl]-3,4-dihydro-8H-imidazo[5,1-c][1,2,4]oxadiazin-6-amine]
